Results: patent US11279707B2, “NEK inhibitors and methods of use” (DANA-FARBER CANCER INSTITUTE, INC., priority 2017, dated 2022)

Experiments:
Assay type in all cases: biochemical
NEK2 = target: T1, NEK2 (Homo sapiens, UniProt P51955); experiment: kinase inhibition, NEK2
T1 sequence (P51955 1-445): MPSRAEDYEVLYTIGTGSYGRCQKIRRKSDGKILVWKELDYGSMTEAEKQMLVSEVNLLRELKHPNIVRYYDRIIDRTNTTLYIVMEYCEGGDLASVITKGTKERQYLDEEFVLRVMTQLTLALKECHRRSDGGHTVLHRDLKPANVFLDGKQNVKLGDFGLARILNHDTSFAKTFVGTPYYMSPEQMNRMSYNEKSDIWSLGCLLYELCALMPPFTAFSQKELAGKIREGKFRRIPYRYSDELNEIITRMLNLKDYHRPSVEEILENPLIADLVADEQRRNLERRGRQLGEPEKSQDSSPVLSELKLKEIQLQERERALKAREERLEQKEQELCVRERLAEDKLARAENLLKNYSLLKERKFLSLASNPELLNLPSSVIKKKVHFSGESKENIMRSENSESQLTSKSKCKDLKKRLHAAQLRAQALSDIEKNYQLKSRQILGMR

NEK6 = NEK6 (Homo sapiens, UniProt Q9HC98); experiment: kinase inhibition, NEK6
Chain of NEK6 (Q9HC98 whole entry, species assumed): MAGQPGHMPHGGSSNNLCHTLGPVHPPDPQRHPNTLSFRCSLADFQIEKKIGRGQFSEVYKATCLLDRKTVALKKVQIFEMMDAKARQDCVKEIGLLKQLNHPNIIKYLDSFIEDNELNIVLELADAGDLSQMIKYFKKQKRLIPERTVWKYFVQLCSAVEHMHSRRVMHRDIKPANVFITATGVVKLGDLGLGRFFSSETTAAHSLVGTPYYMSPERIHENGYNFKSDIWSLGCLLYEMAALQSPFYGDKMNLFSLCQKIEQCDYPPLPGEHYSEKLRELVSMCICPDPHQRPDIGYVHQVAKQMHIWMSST

DMPK = target: T2, DMPK (Homo sapiens, UniProt Q09013); experiment: kinase inhibition, DMPK
T2 sequence (Q09013 1-629): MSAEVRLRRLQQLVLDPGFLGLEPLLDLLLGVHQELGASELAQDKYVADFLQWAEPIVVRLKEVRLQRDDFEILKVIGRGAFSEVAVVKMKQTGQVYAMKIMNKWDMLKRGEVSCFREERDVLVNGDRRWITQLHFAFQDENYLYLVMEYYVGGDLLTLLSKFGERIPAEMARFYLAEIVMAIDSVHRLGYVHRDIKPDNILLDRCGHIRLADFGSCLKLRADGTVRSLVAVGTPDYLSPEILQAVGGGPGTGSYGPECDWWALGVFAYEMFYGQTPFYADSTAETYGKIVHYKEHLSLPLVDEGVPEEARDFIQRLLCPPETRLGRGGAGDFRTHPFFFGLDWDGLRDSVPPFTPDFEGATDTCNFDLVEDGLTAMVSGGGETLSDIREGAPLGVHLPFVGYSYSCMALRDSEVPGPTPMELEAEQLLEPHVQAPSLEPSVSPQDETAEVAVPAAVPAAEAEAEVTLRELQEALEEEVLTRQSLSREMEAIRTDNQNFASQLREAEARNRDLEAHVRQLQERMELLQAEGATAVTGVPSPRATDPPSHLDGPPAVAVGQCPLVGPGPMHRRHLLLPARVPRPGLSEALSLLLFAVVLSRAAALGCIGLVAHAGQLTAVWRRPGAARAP

NEK9 = target: T3, NEK9 (Homo sapiens, UniProt Q8TD19); experiment: kinase inhibition, NEK9
T3 sequence (Q8TD19 1-979): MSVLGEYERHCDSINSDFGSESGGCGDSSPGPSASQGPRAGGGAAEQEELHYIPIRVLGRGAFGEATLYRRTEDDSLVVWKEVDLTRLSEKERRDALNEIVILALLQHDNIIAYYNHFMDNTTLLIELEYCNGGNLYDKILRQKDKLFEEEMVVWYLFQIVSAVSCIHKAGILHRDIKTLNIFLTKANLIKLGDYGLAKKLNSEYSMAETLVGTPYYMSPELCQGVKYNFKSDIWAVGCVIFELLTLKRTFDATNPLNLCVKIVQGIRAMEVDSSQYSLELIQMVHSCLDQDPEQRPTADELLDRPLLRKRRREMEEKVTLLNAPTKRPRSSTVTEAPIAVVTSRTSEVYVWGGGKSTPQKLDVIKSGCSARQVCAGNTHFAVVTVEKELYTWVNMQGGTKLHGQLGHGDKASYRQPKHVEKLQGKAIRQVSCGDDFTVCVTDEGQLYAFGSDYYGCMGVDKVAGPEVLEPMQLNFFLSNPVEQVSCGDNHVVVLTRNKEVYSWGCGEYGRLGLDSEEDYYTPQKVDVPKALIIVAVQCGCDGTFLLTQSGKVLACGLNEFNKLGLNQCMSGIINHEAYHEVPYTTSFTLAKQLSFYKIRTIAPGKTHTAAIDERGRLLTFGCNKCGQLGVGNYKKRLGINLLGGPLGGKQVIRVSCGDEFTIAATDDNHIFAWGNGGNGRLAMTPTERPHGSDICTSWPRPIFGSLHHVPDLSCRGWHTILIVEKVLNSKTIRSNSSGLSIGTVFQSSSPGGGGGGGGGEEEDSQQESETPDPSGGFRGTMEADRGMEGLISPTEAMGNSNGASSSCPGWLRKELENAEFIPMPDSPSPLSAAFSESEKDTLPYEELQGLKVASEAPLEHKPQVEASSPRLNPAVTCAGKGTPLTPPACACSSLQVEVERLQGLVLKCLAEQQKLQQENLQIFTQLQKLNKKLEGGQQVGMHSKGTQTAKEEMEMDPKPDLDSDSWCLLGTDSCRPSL

CLK = experiment: kinase inhibition, CLK
NEK7 = NEK7 (Homo sapiens, UniProt Q8TDX7); experiment: kinase inhibition, NEK7
Chain of NEK7 (Q8TDX7 whole entry, species assumed): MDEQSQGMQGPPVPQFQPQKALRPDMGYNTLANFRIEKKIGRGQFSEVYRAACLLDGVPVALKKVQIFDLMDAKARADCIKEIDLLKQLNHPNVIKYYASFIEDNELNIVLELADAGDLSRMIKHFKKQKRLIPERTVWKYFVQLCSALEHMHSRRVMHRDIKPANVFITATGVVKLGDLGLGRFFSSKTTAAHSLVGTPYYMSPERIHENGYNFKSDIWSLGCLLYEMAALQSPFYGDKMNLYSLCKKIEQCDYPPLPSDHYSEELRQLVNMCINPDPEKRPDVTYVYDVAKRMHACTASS

SLK = SLK (Homo sapiens, UniProt Q9H2G2); experiment: kinase inhibition, SLK
Chain of SLK (Q9H2G2 whole entry): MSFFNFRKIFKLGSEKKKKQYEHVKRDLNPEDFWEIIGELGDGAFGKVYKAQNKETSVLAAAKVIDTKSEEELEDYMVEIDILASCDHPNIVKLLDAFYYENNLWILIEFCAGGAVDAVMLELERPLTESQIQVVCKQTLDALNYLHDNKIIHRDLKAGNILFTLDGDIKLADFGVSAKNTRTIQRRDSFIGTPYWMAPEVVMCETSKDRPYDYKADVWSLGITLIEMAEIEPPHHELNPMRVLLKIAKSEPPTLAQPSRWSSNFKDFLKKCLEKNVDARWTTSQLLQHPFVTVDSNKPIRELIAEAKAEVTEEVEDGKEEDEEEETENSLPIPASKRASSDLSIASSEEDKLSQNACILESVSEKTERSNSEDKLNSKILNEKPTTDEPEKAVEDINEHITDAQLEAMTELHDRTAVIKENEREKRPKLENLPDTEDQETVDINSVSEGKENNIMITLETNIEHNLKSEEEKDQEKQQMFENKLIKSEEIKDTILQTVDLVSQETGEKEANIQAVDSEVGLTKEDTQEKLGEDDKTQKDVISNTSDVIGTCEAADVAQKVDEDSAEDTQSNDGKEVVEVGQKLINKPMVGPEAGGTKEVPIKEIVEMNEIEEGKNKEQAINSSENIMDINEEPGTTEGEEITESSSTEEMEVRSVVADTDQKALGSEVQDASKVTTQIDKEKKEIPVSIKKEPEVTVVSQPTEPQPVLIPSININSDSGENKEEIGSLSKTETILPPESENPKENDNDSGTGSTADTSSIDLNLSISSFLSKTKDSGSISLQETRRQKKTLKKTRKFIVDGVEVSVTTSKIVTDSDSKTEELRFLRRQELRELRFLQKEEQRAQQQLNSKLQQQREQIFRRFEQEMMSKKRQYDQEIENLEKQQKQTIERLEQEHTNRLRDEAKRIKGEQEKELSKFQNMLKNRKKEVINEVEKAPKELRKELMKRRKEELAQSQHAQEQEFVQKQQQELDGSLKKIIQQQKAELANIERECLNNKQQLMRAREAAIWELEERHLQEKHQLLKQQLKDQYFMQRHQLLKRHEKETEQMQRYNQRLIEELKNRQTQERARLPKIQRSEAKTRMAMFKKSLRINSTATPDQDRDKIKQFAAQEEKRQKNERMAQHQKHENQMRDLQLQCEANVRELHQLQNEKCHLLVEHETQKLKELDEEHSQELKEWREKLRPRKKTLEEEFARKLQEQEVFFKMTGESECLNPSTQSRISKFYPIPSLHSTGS

| IC50 (NEK2) | IC50 (NEK6) | IC50 (DMPK) | IC50 (CLK) | IC50 (NEK7) | IC50 (SLK) | Structure (SMILES) | IC50 (NEK9) |
| --- | --- | --- | --- | --- | --- | --- | --- |
| 50 to 250 nM | 250 to 1000 nM | 1000 to 5000 nM | 250 to 1000 nM | 250 to 1000 nM | – | COc1cc(N2CCC(N3CCN(C)CC3)CC2)ccc1Nc1ncc2c(n1)n1c(cc3ccccc31)c(=O)n2C [Compound I-9] | ≤ 50 nM |
| 50 to 250 nM | ≥ 5000 nM | 250 to 1000 nM | 1000 to 5000 nM | 1000 to 5000 nM | – | Cn1c(=O)c2cc3ccccc3n2c2nc(Nc3cnn(CCN4CCOCC4)c3)ncc21 [Compound I-10] | 50 to 250 nM |
| 250 to 1000 nM | ≥ 5000 nM | 1000 to 5000 nM | ≥ 5000 nM | 1000 to 5000 nM | – | Cn1c(=O)c2cc3ccccc3n2c2nc(Nc3cnn(CC(F)F)c3)ncc21 [Compound I-11] | 50 to 250 nM |
| 50 to 250 nM | 1000 to 5000 nM | 1000 to 5000 nM | 250 to 1000 nM | 1000 to 5000 nM | – | COc1cc(C(=O)N2CCN(C)CC2)ccc1Nc1ncc2c(n1)n1c(cc3ccccc31)c(=O)n2C [Compound I-12] | 1000 to 5000 nM |
| 50 to 250 nM | 1000 to 5000 nM | ≥ 5000 nM | ≥ 5000 nM | 250 to 1000 nM | – | CN1CCN(c2ccc(Nc3ncc4c(n3)n3c(cc5ccccc53)c(=O)n4C)c(C(F)(F)F)c2)CC1 [Compound I-13] | 1000 to 5000 nM |
| 50 to 250 nM | 1000 to 5000 nM | 250 to 1000 nM | ≥ 5000 nM | 50 to 250 nM | – | COc1cc(C(=O)N2CCOCC2)ccc1Nc1ncc2c(n1)n1c(cc3ccccc31)c(=O)n2C [Compound I-14] | ≤ 50 nM |
| ≤ 50 nM | 250 to 1000 nM | 250 to 1000 nM | 250 to 1000 nM | 250 to 1000 nM | – | CCN1CCN(c2ccc(Nc3ncc4c(n3)n3c(cc5ccccc53)c(=O)n4C)c(OC)c2)CC1 [Compound I-15] | 50 to 250 nM |
| ≤ 50 nM | 250 to 1000 nM | 50 to 250 nM | 50 to 250 nM | 250 to 1000 nM | – | CCN1CCN(c2ccc(Nc3ncc4c(n3)n3c(cc5ccccc53)c(=O)n4C)cc2)CC1 [Compound I-16] | ≤ 50 nM |
| ≤ 50 nM | 250 to 1000 nM | 50 to 250 nM | 50 to 250 nM | – | 50 to 250 nM | Cn1c(=O)c2cc3ccccc3n2c2nc(Nc3ccc(N4CCC(N5CCOCC5)CC4)cc3)ncc21 [Compound I-17] | ≤ 50 nM |
| 50 to 250 nM | 250 to 1000 nM | ≥ 5000 nM | ≥ 5000 nM | 250 to 1000 nM | – | CCOc1cc(N2CCC(O)CC2)ccc1Nc1ncc2c(n1)n1c(cc3ccccc31)c(=O)n2C [Compound I-18] | 250 to 1000 nM |
| ≥ 5000 nM | 1000 to 5000 nM | ≥ 5000 nM | ≥ 5000 nM | 250 to 1000 nM | – | CC(C)Oc1cc(N2CCC(O)CC2)ccc1Nc1ncc2c(n1)n1c(cc3ccccc31)c(=O)n2C [Compound I-19] | ≥ 5000 nM |
| 50 to 250 nM | 250 to 1000 nM | 1000 to 5000 nM | 1000 to 5000 nM | 50 to 250 nM | – | COc1cc(N2CCC(C(N)=O)CC2)ccc1Nc1ncc2c(n1)n1c(cc3ccccc31)c(=O)n2C [Compound I-20] | 50 to 250 nM |
| ≤ 50 nM | 250 to 1000 nM | 250 to 1000 nM | 250 to 1000 nM | 250 to 1000 nM | – | Cn1c(=O)c2cc3ccccc3n2c2nc(Nc3cc(N4CCOCC4)cc(N4CCOCC4)c3)ncc21 [Compound I-21] | 50 to 250 nM |
| 50 to 250 nM | 1000 to 5000 nM | 250 to 1000 nM | 250 to 1000 nM | 250 to 1000 nM | – | Cn1c(=O)c2cc3ccccc3n2c2nc(Nc3ccc(N4CCOCC4)nc3)ncc21 [Compound I-22] | 50 to 250 nM |
| ≤ 50 nM | 250 to 1000 nM | 50 to 250 nM | 50 to 250 nM | 250 to 1000 nM | – | CN1CCN(C2CCN(c3ccc(Nc4ncc5c(n4)n4c(cc6ccccc64)c(=O)n5C)cn3)CC2)CC1 [Compound I-23] | ≤ 50 nM |
| ≤ 50 nM | – | – | – | – | – | CCN1CCN(c2ccc(Nc3ncc4c(n3)n3c(cc5ccccc53)c(=O)n4C)cc2C(F)(F)F)CC1 [Compound I-25] | 50 to 250 nM |
| 50 to 250 nM | – | – | – | – | – | CCn1c(=O)c2cc3ccccc3n2c2nc(Nc3ccc(N4CCN(C)CC4)cc3)ncc21 [Compound I-26] | 50 to 250 nM |
| 250 to 1000 nM | – | – | – | – | – | CCn1c(=O)c2cc3ccccc3n2c2nc(Nc3ccc(N4CCN(C)CC4)c(C(F)(F)F)c3)ncc21 [Compound I-27] | 250 to 1000 nM |
| 50 to 250 nM | – | – | – | – | – | CCN1CCN(c2ccc(Nc3ncc4c(n3)N3c5ccccc5CC3C(=O)N4C)cc2)CC1 (stereo not drawn) [Compound I-28] | ≤ 50 nM |
| ≤ 50 nM | – | – | – | – | – | CN1C(=O)C2Cc3ccccc3N2c2nc(Nc3ccc(N4CCC(N5CCOCC5)CC4)cc3)ncc21 (stereo not drawn) [Compound I-29] | ≤ 50 nM |
| 250 to 1000 nM | – | – | – | – | – | COc1cc(N2CCN(C)CC2)ccc1Nc1ncc2c(n1)N1c3ccccc3CC1C(=O)N2C (stereo not drawn) [Compound I-30] | 50 to 250 nM |
| 50 to 250 nM | – | – | – | – | – | CN1C(=O)C2Cc3ccccc3N2c2nc(Nc3cc(N4CCOCC4)cc(N4CCOCC4)c3)ncc21 (stereo not drawn) [Compound I-31] | 50 to 250 nM |
| 50 to 250 nM | – | – | – | – | – | CN1C(=O)C2Cc3ccccc3N2c2nc(Nc3ccc(N4CCOCC4)cc3)ncc21 (stereo not drawn) [Compound I-32] | 50 to 250 nM |
| 1000 to 5000 nM | – | – | – | – | – | COc1cc(N2CCOCC2)ccc1Nc1ncc2c(n1)N1c3ccccc3CC1C(=O)N2C (stereo not drawn) [Compound I-33] | 250 to 1000 nM |
